Bounds are passed on as bounds.

Sequence of Recombinant human cathepsin A (P10619 29-326): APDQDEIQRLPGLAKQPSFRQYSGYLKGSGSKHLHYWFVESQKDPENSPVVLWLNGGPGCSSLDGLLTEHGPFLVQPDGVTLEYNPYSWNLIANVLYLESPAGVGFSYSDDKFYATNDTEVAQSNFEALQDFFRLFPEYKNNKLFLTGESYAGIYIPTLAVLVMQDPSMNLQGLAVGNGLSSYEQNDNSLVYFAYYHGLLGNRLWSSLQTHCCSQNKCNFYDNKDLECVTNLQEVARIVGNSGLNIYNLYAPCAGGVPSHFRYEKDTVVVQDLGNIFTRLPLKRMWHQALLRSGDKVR
Sequence of Recombinant human cathepsin A (P10619 327-480): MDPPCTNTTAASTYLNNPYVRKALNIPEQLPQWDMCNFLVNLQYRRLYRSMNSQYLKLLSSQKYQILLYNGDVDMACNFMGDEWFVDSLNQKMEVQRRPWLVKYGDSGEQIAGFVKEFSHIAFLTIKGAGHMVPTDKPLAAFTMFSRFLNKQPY

The first assay concerns the target Recombinant human cathepsin A (Homo sapiens (Human), UniProt P10619). Put plainly: Cathepsin A inhibitory activity (cleavage of Bodipy FL-labeled bradykinin, microfluidic capillary electrophoresis). The assay is classed as biochemical. To be noted: read-out: Activity (Cathepsin A inhibitory activity, IC50).
Method: Pharmacological Tests a) Cathepsin A Inhibitory Activity
Briefly, cathepsin A was incubated at 10 μg/ml with cathepsin L at 1 μg/ml in activation buffer (25 mM 2-(morpholin-4-yl)-ethanesulfonic acid (MES), pH 6.0, containing 5 mM dithiothreitol (DTT)) for 15 min at 37° C.
The activated cathepsin A was diluted in assay buffer (25 mM MES, pH 5.5, containing 5 mM DTT) and mixed with the test compound (dissolved in assay buffer containing (v/v) 3% DMSO) or, in the control experiments, with the vehicle in a multiple assay plate. After incubation for 15 min at room temperature, as substrate then bradykinin carrying an N-terminal ®Bodipy FL (4,4-difluoro-5,7-dimethyl-4-bora-3a,4a-diaza-s-indacene-3-propionyl) label (JPT Peptide Technologies GmbH; dissolved in assay buffer) was added to the mixture. […] After incubation for 15 min at room temperature the reaction was stopped by the addition of stop buffer (130 mM 2-(4-(2-hydroxy-ethyl)-piperazin-1-yl)-ethanesulfonic acid, pH 7.4, containing (v/v) 0.013% ®Triton X-100, 0.13% Coating Reagent 3 (Caliper Life Sciences), 6.5% DMSO and 20 μM ebelactone B (Sigma, #E0886)).
Uncleaved substrate and product were then separated by a microfluidic capillary electrophoresis on a LabChip® 3000 Drug Discovery System (12-Sipper-Chip; Caliper Life Sciences) and quantified by determination of the respective peak areas. Substrate turnover was calculated by dividing product peak area by the sum of substrate and product peak areas, and the enzyme activity and the inhibitory effect of the test compound thus quantified.
The IC50 is the midpoint of a concentration-inhibition curve. As for `O=C(O)C[C@H](NC(=O)c1cccc(-c2ccccc2F)n1)c1ccc(C(F)(F)F)cc1` [compound 608], the IC50 was 6.27 µM.

In the case of `COc1ccc(C(=O)NC(CC(=O)O)c2ccccc2Cl)nc1Br` (stereo not drawn) [compound 598, 3-[(6-Bromo-5-methoxy-pyridine-2-carbonyl)-amino]-3-(2-chloro-phenyl)-propionic acid], the IC50 came to 1.46 µM.

The assay is the same for the next values; noted with them: read-out: Activity (IC50, cathepsin A inhibition).
For the compound `O=C(O)CC(NC(=O)c1cnccn1)c1ccccc1Cl` (stereo not drawn) [compound 521], the IC50 came out at 12.8 µM.

Turning to `Cc1cccc(C(=O)NC(CC(=O)O)c2ccccc2Cl)n1` (stereo not drawn) [compound 527], the IC50 amounted to 4.96 µM.

In the case of `COc1ccccc1-c1cccc(C(=O)NC(CC(=O)O)c2ccccc2Cl)n1` (stereo not drawn) [compound 597], the IC50 stood at 1.45 µM.

Consider `C[C@@](CC(=O)O)(NC(=O)c1cccc(-c2ccccc2Cl)n1)c1ccccc1` [compound 581], for which the half-maximal inhibitory concentration (IC50) worked out at 5.76 µM.

Take `O=C(O)C[C@H](NC(=O)c1cccc(-c2ccccc2Cl)n1)c1cccc(F)c1` [compound 587]: the IC50 was 7.35 µM.

With `O=C(O)CC(NC(=O)c1cccc(-c2ccccc2)n1)c1ccccc1Cl` (stereo not drawn) [compound 563], the half-inhibitory concentration (IC50) is 3.09 µM.

Regarding `O=C(O)CC(NC(=O)c1nc(Cl)ccc1Cl)c1ccc(-c2ccccc2)cc1` (stereo not drawn) [compound 498], the IC50 was determined as 8.55 µM.

As to `Cc1ccc([C@H](CC(=O)O)NC(=O)c2cccc(-c3ccccc3F)n2)cc1` [compound 559], the IC50 was 4.38 µM.

As to `COc1ccc(C(=O)N[C@@H](CC(=O)O)c2ccccc2Cl)nc1-c1ccc(C#N)cc1F` [compound 494], the half-maximal inhibitory concentration (IC50) stood at 11.4 µM.

With `O=C(O)CC(NC(=O)c1ccncc1)c1ccccc1Cl` (stereo not drawn) [compound 524], the IC50 was 10.2 µM.

The same assay, now with this note: read-out: Activity (IC50, cathepsin A inhibitory activity).
Regarding `Cc1ccccc1[C@H](CC(=O)O)NC(=O)c1ccccn1` [compound 5], the IC50 is 3.98 µM.

With `COc1ccc(C(=O)N[C@@H](CC(=O)O)c2ccccc2Cl)nc1-c1cccc(C(C)=O)c1` [compound 435], the IC50 turned out to be 4.2 µM.

With `COc1ccc(C(=O)N[C@@H](CC(=O)O)c2ccccc2Cl)nc1-c1ccc(C(F)(F)F)cc1F` [compound 214], the IC50 worked out at 7.02 µM.

With `Cc1ccccc1[C@H](CC(=O)O)NC(=O)c1cc(N2CCOCC2)ccn1` [compound 50], the concentration for half-maximal inhibition (IC50) is 7.73 µM.

Consider `COc1ccccc1-c1cncc(C(=O)N[C@@H](CC(=O)O)c2ccccc2C)c1` [compound 67], for which the IC50 amounted to 4.97 µM.

For the compound `Cc1ccccc1[C@H](CC(=O)O)NC(=O)c1nc(F)ccc1F` [compound 53], the IC50 is 2.83 µM.

Regarding `COc1ccc(C(=O)N[C@@H](CC(=O)O)c2ccccc2C)nc1-c1cc(C)cnc1Cl` [compound 469], the IC50 came out at 5.63 µM.

Regarding `Cc1ccccc1[C@H](CC(=O)O)NC(=O)c1cncc(-c2cccc(F)c2F)c1` [compound 79], the IC50 is 5.01 µM.

With `COc1ccc(C(=O)N[C@@H](CC(=O)O)c2ccccc2Cl)nc1-c1ccc(Cl)c(F)c1` [compound 480], the IC50 is 4.37 µM.

As to `COc1ccc(C(=O)N[C@@H](CC(=O)O)c2ccccc2Cl)nc1-c1ccc(F)c(C)c1` [compound 451], the concentration for half-maximal inhibition (IC50) was determined as 3.79 µM.

For the compound `COc1ccc(C(=O)N[C@@H](CC(=O)O)c2ccccc2Cl)nc1-c1ccccc1C(=O)N(C)C` [compound 454], the 50% inhibitory concentration (IC50) was 2.5 µM.

Regarding `COc1ncc(C(=O)N[C@@H](CC(=O)O)c2ccccc2C)cc1-c1ccc(Cl)cc1` [compound 408], the IC50 amounted to 5.73 µM.

With `COc1ncc(C(=O)N[C@@H](CC(=O)O)c2ccccc2C)cc1-c1ccccc1C` [compound 411], the IC50 is 1.19 µM.

`COc1cc(C(=O)N[C@@H](CC(=O)O)c2ccccc2C)nc(OC)n1` [compound 16, (S)-3-[(2,6-Dimethoxy-pyrimidine-4-carbonyl)-amino]-3-o-tolyl-propionic acid]: the IC50 amounted to 1.05 µM.

In the case of `COc1ccc(C(=O)N[C@@H](CC(=O)O)c2ccc(C)cc2)nc1-c1ccncc1` [compound 215], the IC50 was found to be 9.66 µM.

In the case of `CCc1ccnc(C(=O)N[C@@H](CC(=O)O)c2ccccc2C)c1` [compound 18], the half-maximal inhibitory concentration (IC50) worked out at 3.06 µM.

In the case of `COc1ccc(OC)c(-c2nc(C(=O)N[C@@H](CC(=O)O)c3ccccc3Cl)ccc2OC)c1` [compound 461], the IC50 stood at 8.31 µM.

Turning to `COc1ccc(C(=O)N[C@@H](CC(=O)O)c2ccccc2F)nc1-c1ccc(F)cc1` [compound 257], the IC50 was found to be 1.26 µM.

Turning to `COc1ccc(C(=O)N[C@@H](CC(=O)O)c2ccc(C)cc2)nc1-c1cc(C(F)(F)F)ccc1F` [compound 236], the IC50 was found to be 3.57 µM.

As to `COc1cc(F)ccc1-c1cncc(C(=O)N[C@@H](CC(=O)O)c2ccccc2C)c1` [compound 85], the IC50 was 7.83 µM.

For the compound `Cc1ccccc1[C@H](CC(=O)O)NC(=O)c1cccc(F)n1` [compound 48], the IC50 worked out at 1.67 µM.

`Cc1cc(F)ccc1-c1cncc(C(=O)N[C@@H](CC(=O)O)c2ccccc2C)c1` [compound 82]: the half-maximal inhibitory concentration (IC50) was determined as 3.08 µM.

Take `COc1ccc(C(=O)N[C@@H](CC(=O)O)c2ccccc2F)nc1-c1cccc(Cl)c1` [compound 265]: the IC50 was 1.72 µM.

As for `COc1ncc(C(=O)N[C@@H](CC(=O)O)c2ccccc2C)cc1-c1ccccc1F` [compound 418], the IC50 was found to be 1.08 µM.

On to `COc1ccc(C(=O)N[C@@H](CC(=O)O)c2ccccc2F)nc1-c1cccc(F)c1` [compound 266], for which the IC50 stood at 1.26 µM.

For the compound `COc1ccc(C(=O)N[C@@H](CC(=O)O)c2ccccc2Cl)nc1-c1cccc(F)c1` [compound 426], the IC50 worked out at 1.54 µM.

As to `COc1ccc(C(C)(C)C)cc1-c1nc(C(=O)N[C@@H](CC(=O)O)c2ccccc2Cl)ccc1OC` [compound 475], the IC50 is > 10 µM.

Take `COc1ccc(C(=O)N[C@@H](CC(=O)O)c2ccccc2F)nc1-c1ccc(C)cc1` [compound 260]: the IC50 turned out to be 5.18 µM.

Consider `COc1ncc(C(=O)N[C@@H](CC(=O)O)c2ccccc2C)cc1-c1ccc(C)cc1` [compound 410], for which the IC50 is 5.38 µM.

Turning to `COc1ccc(C(=O)N[C@@H](CC(=O)O)c2ccccc2Cl)nc1-c1ccncc1` [compound 443], the IC50 stood at 8.04 µM.

Regarding `COc1ccc(-c2cccc(C(=O)N[C@@H](CC(=O)O)c3ccccc3C)n2)cc1` [compound 45], the IC50 amounted to 3.09 µM.

Consider `Cc1ccccc1[C@H](CC(=O)O)NC(=O)c1cccnc1` [compound 8], for which the half-inhibitory concentration (IC50) was 10.4 µM.

Take `COc1ccc(C(=O)N[C@@H](CC(=O)O)c2ccc(C)cc2)nc1-c1cccc(-c2nnc(C)o2)c1` [compound 249]: the IC50 was found to be 8.71 µM.

Regarding `COc1cccc(C(=O)N[C@@H](CC(=O)O)c2ccccc2C)n1` [compound 31], the IC50 amounted to 4.77 µM.

Staying with this assay, now noted: read-out: Activity [μM] (IC50, cathepsin A inhibitory activity).
With `COc1ccc(C(=O)N[C@@H](CC(=O)O)c2ccc(C)cc2)nc1-c1cccc(C)c1` [compound 197], the IC50 was determined as 1.71 µM.

Turning to `COc1ccc(C(=O)N[C@@H](CC(=O)O)c2ccccc2Cl)nc1-c1ccc(Cl)cc1` [compound 334], the IC50 was determined as 1.81 µM.

For the compound `COc1ccc(C(=O)N[C@@H](CC(=O)O)c2ccccc2C)nc1-c1ccccc1C(=O)N(C)C` [compound 374], the IC50 came to 2.48 µM.

`COc1ccc(C(=O)N[C@@H](CC(=O)O)c2ccccc2F)nc1-c1cccc(-c2nnc(C)o2)c1` [compound 316]: the IC50 is > 10 µM.

Take `Cc1ccc(-c2cccc(C(=O)N[C@@H](CC(=O)O)c3ccccc3C)n2)c(C)c1` [compound 162]: the IC50 is 1.43 µM.

For the compound `COc1ccc(C(=O)N[C@@H](CC(=O)O)c2ccccc2C)nc1-c1cccc(C(C)(C)O)c1` [compound 385], the IC50 was found to be 1.15 µM.

Regarding `COc1ccccc1-c1cc(C(=O)N[C@@H](CC(=O)O)c2ccccc2Cl)cnc1OC` [compound 394], the IC50 came to 3.76 µM.

Regarding `COc1ccc(C(=O)N[C@@H](CC(=O)O)c2ccccc2F)nc1-c1ccc(Cl)c(F)c1` [compound 313], the IC50 stood at 3.55 µM.

Take `Cc1ccccc1[C@H](CC(=O)O)NC(=O)c1cccc(-c2ccc(F)cc2F)n1` [compound 149]: the IC50 came to 4.4 µM.

For the compound `Cc1ccccc1[C@H](CC(=O)O)NC(=O)c1cccc(-c2ccc(C(F)(F)F)cc2)n1` [compound 138], the 50% inhibitory concentration (IC50) was 6.83 µM.

Turning to `Cc1ccccc1[C@H](CC(=O)O)NC(=O)c1cccc(-c2ccc(Cl)cc2)n1` [compound 136], the IC50 was determined as 4.85 µM.

For `COc1ccc(C(=O)N[C@@H](CC(=O)O)c2ccc(C)cc2)nc1-c1ccc(Cl)cc1Cl` [compound 183], the 50% inhibitory concentration (IC50) is 1.01 µM.

Consider `COc1ccc(C(=O)N[C@@H](CC(=O)O)c2ccccc2C)nc1-c1cccc(F)c1Cl` [compound 383], for which the IC50 was 1.64 µM.

Take `Cc1ccccc1[C@H](CC(=O)O)NC(=O)c1cccc(-c2cccc(Cl)c2)n1` [compound 140]: the IC50 is 1.57 µM.

Take `COc1ccc(-c2cc(C(=O)N[C@@H](CC(=O)O)c3ccccc3Cl)cnc2OC)cc1` [compound 387]: the IC50 was 9.43 µM.

Take `COc1ccc(C(=O)N[C@@H](CC(=O)O)c2ccc(C)cc2)nc1-c1ccc(C)cc1` [compound 188]: the IC50 is 4.45 µM.

Turning to `COc1cccc(-c2nc(C(=O)N[C@@H](CC(=O)O)c3ccc(C)cc3)ccc2OC)c1` [compound 191], the IC50 came to 4.57 µM.

For `COc1ccc(-c2nc(C(=O)N[C@@H](CC(=O)O)c3ccccc3Cl)ccc2OC)cc1` [compound 335], the IC50 turned out to be 2.25 µM.

As to `COc1cccc(-c2nc(C(=O)N[C@@H](CC(=O)O)c3ccccc3Cl)ccc2OC)c1` [compound 339], the IC50 came out at 2.78 µM.

As for `COc1ncc(C(=O)N[C@@H](CC(=O)O)c2ccccc2Cl)cc1-c1ccccc1` [compound 344, (S)-3-(2-Chloro-phenyl)-3-[(6-methoxy-5-phenyl-pyridine-3-carbonyl)-amino]-propionic acid], the IC50 was found to be 3.49 µM.

With `COc1ccc(C(=O)N[C@@H](CC(=O)O)c2ccccc2C)nc1-c1ccc(C(C)=O)s1` [compound 364], the IC50 was determined as 9.25 µM.

As for `Cc1ccccc1[C@H](CC(=O)O)NC(=O)c1cccc(-c2cc(F)cc(F)c2)n1` [compound 150], the IC50 was 1.02 µM.

As to `COc1ccc(C(=O)N[C@@H](CC(=O)O)c2ccccc2F)nc1-c1cccc(C2(O)COC2)c1` [compound 326], the IC50 amounted to 8.46 µM.

(Values after patent US9029559B2, “Substituted 3-heteroaroylamino-propionic acid derivatives and their use as pharmaceuticals” (SANOFI, priority 2011, dated 2015).)
